We go through eleven molecules from ChEMBL document CHEMBL1201862, “PubChem BioAssay data set” (2004).

What all share (assay): NCI-60 cell line screen, 48 h
Experiment [1] relates to SK-MEL-28.
For experiment [2], the system named is COLO 205.
For experiment [3], the system named is MDA-N.
Experiment [4] concerns OVCAR-5.
In experiment [5] the test system is A498.
In experiment [6] the test system is SF-268.
Experiment [7] relates to EKVX.
Experiment [8] concerns UACC-257.
Experiment [9] has as its system KM12.
The test system of experiment [10] is MDA-MB-435.
Experiment [11] concerns RPMI-8226.
Experiment [12] has as its system MDA-MB-231.
Experiment [13] relates to SF-539.
Experiment [14] concerns HT-29.
Experiment [15] relates to ACHN.
In experiment [16] the test system is 786-0.
In experiment [17] the test system is SK-MEL-5.
Experiment [18] deals with HL-60.
Experiment [19] relates to SR.

Molecules are shown by their SMILES.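 Values below derive from 48-hour exposures of cells grown in 96-well plates, with endpoints linearly interpolated between the two concentrations bracketing the appropriate inhibition level. At the GI50, growth is halved.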 Calls of active or inactive are those of the source. Rule as the data show it: active = GI50 up to about 1.1 µM and inactive = higher. Bounds are passed on as bounds.

For the molecule `CCOc1ccc(N/C(=C(/C(Cl)=C(/Cl)NCCN)[N+](=O)[O-])n2nnc3ccccc32)cc1`, the GI50 in experiment [1] was 27.9 µM (inactive); in experiment [2], 15.6 µM (inactive); in [3], 58.1 µM (inactive); in experiment [4], 67.3 µM (inactive); in experiment [5], 56.8 µM (inactive); in [6], 13.6 µM (inactive). Moreover, the GI50 in experiment [7] is 50.2 µM (inactive); in experiment [8], > 100 µM (inactive); in experiment [9] it was 30.8 µM (inactive); in [10] it was 44.3 µM (inactive); in experiment [11] it was 30.9 µM (inactive); in experiment [12], 25.9 µM (inactive). Further, the GI50 in experiment [13] is 18.2 µM (inactive); in experiment [14], 33.3 µM (inactive); in [15] it was 17.9 µM (inactive); in [16], 31.8 µM (inactive).

Regarding `CC(C)N1C=[N+](C(C)C)CC1`, the GI50 in experiment [1], in [2], in experiment [3], in [4], in [5] and in experiment [6] was > 100 µM (inactive) in each case. Besides, the GI50 in experiment [7], in experiment [8], in [9], in [10], in [17] and in experiment [11] was > 100 µM (inactive) throughout. Also, the GI50 in experiment [12], in experiment [13], in experiment [14], in [15] and in [16] was > 100 µM (inactive) in each case.

With `Cc1nc(C(N)=S)sc1/C(CC(=O)C(=O)Nc1cccc2ccc(O)cc12)=N\NC(=O)c1ccncc1`, the GI50 is 74.8 µM (inactive) in [1]; 49.2 µM (inactive) in experiment [2]; 63.5 µM (inactive) in experiment [3]; > 100 µM (inactive) in experiment [4]; 82.8 µM (inactive) in [6]; 25.6 µM (inactive) in experiment [18]. For the same molecule, the GI50 was > 100 µM (inactive) in experiment [7]; > 100 µM (inactive) in experiment [8]; > 100 µM (inactive) in experiment [9]; > 100 µM (inactive) in experiment [10]; 33.2 µM (inactive) in experiment [17]; > 100 µM (inactive) in [12]. For the same molecule, the GI50 in experiment [13] was 94.2 µM (inactive); in experiment [14] it was 37.8 µM (inactive); in experiment [15] it was > 100 µM (inactive); in experiment [16] it was 40.3 µM (inactive).

As for `C=C1C(=O)O[C@@H]2C[C@@]3(C)CC(=O)C=C(C)[C@@H]3C[C@H]12`, the GI50 was 5.73 µM (inactive) in experiment [1]; 3.37 µM (inactive) in experiment [2]; 3.74 µM (inactive) in [3]; 14.7 µM (inactive) in experiment [4]; > 10 µM (inactive) in [5]; 11.8 µM (inactive) in experiment [6]. In addition, the GI50 is 1.71 µM (inactive) in experiment [18]; 12.2 µM (inactive) in [7]; 12.2 µM (inactive) in experiment [8]; 18.6 µM (inactive) in [9]; 5.66 µM (inactive) in experiment [10]; 10 µM (inactive) in experiment [17]. For the same molecule, the GI50 in [11] was 2.12 µM (inactive); in experiment [12], 16.9 µM (inactive); in experiment [13], 13.3 µM (inactive); in experiment [14] it was 6.14 µM (inactive); in [15], 2.69 µM (inactive); in experiment [16], 12.4 µM (inactive).

For the molecule `CCOc1ccc(/C=N/[N+](C)(C)C)cc1OCC`, the GI50 in [1], in [2], in experiment [3], in [19], in experiment [4] and in experiment [6] was > 10 µM (inactive) each time. For the same molecule, the GI50 in [8], in experiment [9], in [10], in experiment [17], in [11] and in [12] was > 10 µM (inactive) throughout. Moreover, the GI50 in experiment [13], in experiment [14], in experiment [15] and in [16] was > 10 µM (inactive) each time.

`C=C=C(CC(CC(=C)Br)(C(=O)OC)C(=O)OC)S(=O)(=O)c1ccccc1`: the GI50 in [1] was 1.76 µM (inactive); in experiment [2] it was 1.84 µM (inactive); in experiment [3] it was 2.44 µM (inactive); in [4], 1.65 µM (inactive); in experiment [5] it was 5.6 µM (inactive); in experiment [6], 2.37 µM (inactive). For the same molecule, the GI50 in experiment [18] was 0.494 µM (active); in [7] it was 2.82 µM (inactive); in experiment [8], 2.03 µM (inactive); in experiment [9] it was 2.29 µM (inactive); in experiment [10], 1.74 µM (inactive); in experiment [17] it was 3.11 µM (inactive). Moreover, the GI50 was 1.85 µM (inactive) in experiment [11]; 1.98 µM (inactive) in [12]; 1.8 µM (inactive) in [13]; 1.62 µM (inactive) in experiment [14]; 2.39 µM (inactive) in experiment [15]; 1.05 µM (active) in [16].

With `CC(=O)Nc1ccc(N2C(=O)CS(=O)(=O)C2c2cccc(Oc3ccccc3)c2)cc1` (configuration not stated), the GI50 was 21.9 µM (inactive) in [1]; 17.2 µM (inactive) in [2]; 16.8 µM (inactive) in experiment [3]; 20.3 µM (inactive) in [19]; 17.6 µM (inactive) in [4]; 20.2 µM (inactive) in [6]. The GI50 in experiment [18] is 23.5 µM (inactive); in [7] it was 15.4 µM (inactive); in experiment [8], 16.8 µM (inactive); in experiment [9] it was 17.2 µM (inactive); in experiment [10], 21.2 µM (inactive); in [17] it was 14.7 µM (inactive). For the same molecule, the GI50 was 17.4 µM (inactive) in experiment [12]; 19.5 µM (inactive) in experiment [13]; 19.1 µM (inactive) in experiment [14]; 16.6 µM (inactive) in experiment [15]; 17.1 µM (inactive) in experiment [16].

As to `COC(=O)[C@@]12CCCC(=O)[C@@H]1[C@H]1CCCC[C@H]12`, the GI50 in experiment [1], in experiment [2], in experiment [3], in experiment [19], in [4] and in experiment [6] was > 100 µM (inactive) throughout. For the same molecule, the GI50 in experiment [7], in experiment [8], in experiment [9], in experiment [10], in experiment [17] and in [11] was > 100 µM (inactive) in each case. In addition, the GI50 in experiment [12], in [13], in experiment [14], in [15] and in experiment [16] was > 100 µM (inactive) throughout.

Consider `Fc1ccc(C(OCCN2CCC3CCC(C2)N3C/C=C/c2cccs2)c2ccc(F)cc2)cc1` (configuration not stated), for which the GI50 was 6.47 µM (inactive) in experiment [1]; 1.96 µM (inactive) in experiment [2]; 10.3 µM (inactive) in experiment [3]; 13.1 µM (inactive) in experiment [4]; 9.06 µM (inactive) in experiment [5]; 12.2 µM (inactive) in experiment [6]. Also, the GI50 in experiment [7] was 4.41 µM (inactive); in experiment [8], 3.66 µM (inactive); in experiment [9] it was 4.44 µM (inactive); in [10], 6.98 µM (inactive); in experiment [17] it was 3.04 µM (inactive); in [11], 0.0133 µM (active). Also, the GI50 in [12] was 9.31 µM (inactive); in experiment [13], 10.6 µM (inactive); in experiment [14], 1.37 µM (inactive); in experiment [15] it was 11.8 µM (inactive); in [16], 8.49 µM (inactive).

As for `CCCCC(Sc1cc(Cl)c(C)cc1S(=O)(=O)Nc1nc(N)n[nH]1)C(=O)OC` (configuration not stated), the GI50 in [1], in [2], in [3], in experiment [4], in experiment [5] and in [6] was > 10 µM (inactive) throughout. Besides, the GI50 in [18], in experiment [7], in [8], in experiment [9], in experiment [10] and in [17] was > 10 µM (inactive) throughout. Besides, the GI50 in experiment [11], in experiment [12], in [13], in experiment [14], in [15] and in experiment [16] was > 10 µM (inactive) in each case.

Consider `Cc1ccc(C(=O)Nc2ccc(CP(=O)(O)O)cc2)cc1NC(=O)Nc1cc(C(=O)Nc2ccc(CP(=O)(O)O)cc2)ccc1C`, for which the GI50 in experiment [1], in experiment [2], in experiment [3], in experiment [4], in [5] and in experiment [6] was > 100 µM (inactive) in each case. The GI50 in experiment [18], in experiment [7], in [8], in experiment [9], in experiment [10] and in experiment [17] was > 100 µM (inactive) in each case. Further, the GI50 in experiment [11], in [12], in experiment [13], in experiment [14] and in experiment [16] was > 100 µM (inactive) throughout.
